Test results as given in publication PMC3969223, “Characterization of WZ4003 and HTH-01-015 as selective inhibitors of the LKB1-tumour-suppressor-activated NUAK kinases” (Biochemical Journal, 2013).

Columns and labels:
Assay in all cases: Kinase profiling
Format in all cases: biochemical
PKBβ = PKBβ (Homo sapiens, UniProt P31751); settings: 0.1 or 1 μM inhibitor; mean of triplicate
Description: (§1) Kinase inhibitor specificity profiling assays were carried out at The International Centre for Protein Kinase Profiling (http://www.kinase-screen.mrc.ac.uk/) against a panel of 140 protein kinases as described previously. Results are presented as a percentage of kinase activity in DMSO control reactions. Protein kinases were assayed in vitro with 0.1 or 1 μM of the inhibitors and the results are presented as an average of triplicate reactions±S.D. or in the form of comparative histograms.

EPH-B3 = EPH-B3 (Homo sapiens, UniProt P54753); settings: 0.1 or 1 μM inhibitor; mean of triplicate
Description: as §1

MKK6 = MKK6 (Homo sapiens, UniProt P52564); settings: 0.1 or 1 μM inhibitor; mean of triplicate
Description: as §1

TIE2 = TIE2 (Homo sapiens, UniProt Q02763); settings: 0.1 or 1 μM inhibitor; mean of triplicate
Description: as §1

CHK2 = CHK2 (Homo sapiens, UniProt O96017); settings: 0.1 or 1 μM inhibitor; mean of triplicate
Description: as §1

LKB1 = LKB1 (Homo sapiens, UniProt Q15831); settings: 0.1 or 1 μM inhibitor; mean of triplicate
Description: as §1

PHK = PHK (Homo sapiens, UniProt Q16816); settings: 0.1 or 1 μM inhibitor; mean of triplicate
Description: as §1

MARK1 = MARK1 (Homo sapiens, UniProt Q9P0L2)
Description: as §1

CSK = CSK (Homo sapiens, UniProt P41240); settings: 0.1 or 1 μM inhibitor; mean of triplicate
Description: as §1

MPSK1 = MPSK1 (Homo sapiens, UniProt O75716); settings: 0.1 or 1 μM inhibitor; mean of triplicate
Description: as §1

MAP4K3 = MAP4K3 (Homo sapiens, UniProt Q8IVH8); settings: 0.1 or 1 μM inhibitor; mean of triplicate
Description: as §1

ULK1 = ULK1 (Homo sapiens, UniProt O75385); settings: 0.1 or 1 μM inhibitor; mean of triplicate
Description: as §1

MNK1 = MNK1 (Homo sapiens, UniProt Q9BUB5); settings: 0.1 or 1 μM inhibitor; mean of triplicate
Description: as §1

MLK1 = MLK1 (Homo sapiens, UniProt P80192); settings: 0.1 or 1 μM inhibitor; mean of triplicate
Description: as §1

TLK1 = TLK1 (Homo sapiens, UniProt Q9UKI8); settings: 0.1 or 1 μM inhibitor; mean of triplicate
Description: as §1

MST4 = MST4 (Homo sapiens, UniProt Q9P289); settings: 0.1 or 1 μM inhibitor; mean of triplicate
Description: as §1

NEK2α = NEK2α (Homo sapiens, UniProt P51955); settings: 0.1 or 1 μM inhibitor; mean of triplicate
Description: as §1

PRAK = PRAK (Homo sapiens, UniProt Q8IW41); settings: 0.1 or 1 μM inhibitor; mean of triplicate
Description: as §1

NUAK1 = target: T1, NUAK1 (Homo sapiens, UniProt O60285); settings: 0.1 or 1 μM inhibitor; mean of triplicate
T1 construct: made in house; host or cells: HEK-293 cells, transient transfection of pEBG2T construct
T1 sequence (O60285 1-661): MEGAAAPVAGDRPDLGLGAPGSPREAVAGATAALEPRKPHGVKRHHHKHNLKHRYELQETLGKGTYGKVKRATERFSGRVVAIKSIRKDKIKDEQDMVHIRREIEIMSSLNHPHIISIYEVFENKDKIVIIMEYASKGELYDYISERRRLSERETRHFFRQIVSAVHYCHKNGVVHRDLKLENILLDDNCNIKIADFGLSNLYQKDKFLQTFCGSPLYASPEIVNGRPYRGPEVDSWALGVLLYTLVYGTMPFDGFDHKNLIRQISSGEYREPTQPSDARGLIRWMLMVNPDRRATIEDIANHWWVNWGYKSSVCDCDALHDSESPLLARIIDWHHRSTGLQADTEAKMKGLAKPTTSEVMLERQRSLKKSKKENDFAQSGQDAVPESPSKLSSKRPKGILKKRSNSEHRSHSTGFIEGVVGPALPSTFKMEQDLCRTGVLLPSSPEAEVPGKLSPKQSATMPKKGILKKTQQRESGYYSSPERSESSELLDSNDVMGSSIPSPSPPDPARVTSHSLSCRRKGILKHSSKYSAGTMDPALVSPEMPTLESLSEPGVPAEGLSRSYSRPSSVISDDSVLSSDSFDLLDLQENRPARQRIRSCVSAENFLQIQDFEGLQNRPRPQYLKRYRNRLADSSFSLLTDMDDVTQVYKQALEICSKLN
Description: as §1

MEKK1 = MEKK1 (Homo sapiens, UniProt Q13233); settings: 0.1 or 1 μM inhibitor; mean of triplicate
Description: as §1

Sequence of MPSK1 (O75716 whole entry): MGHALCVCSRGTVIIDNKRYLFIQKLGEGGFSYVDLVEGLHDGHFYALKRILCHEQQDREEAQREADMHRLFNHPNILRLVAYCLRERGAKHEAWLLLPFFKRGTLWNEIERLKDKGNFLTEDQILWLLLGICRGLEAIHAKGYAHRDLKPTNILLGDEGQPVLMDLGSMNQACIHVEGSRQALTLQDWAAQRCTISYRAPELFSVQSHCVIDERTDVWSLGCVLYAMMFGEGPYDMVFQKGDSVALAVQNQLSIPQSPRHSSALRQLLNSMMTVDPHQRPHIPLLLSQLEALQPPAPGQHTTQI
Sequence of EPH-B3 (P54753 34-998): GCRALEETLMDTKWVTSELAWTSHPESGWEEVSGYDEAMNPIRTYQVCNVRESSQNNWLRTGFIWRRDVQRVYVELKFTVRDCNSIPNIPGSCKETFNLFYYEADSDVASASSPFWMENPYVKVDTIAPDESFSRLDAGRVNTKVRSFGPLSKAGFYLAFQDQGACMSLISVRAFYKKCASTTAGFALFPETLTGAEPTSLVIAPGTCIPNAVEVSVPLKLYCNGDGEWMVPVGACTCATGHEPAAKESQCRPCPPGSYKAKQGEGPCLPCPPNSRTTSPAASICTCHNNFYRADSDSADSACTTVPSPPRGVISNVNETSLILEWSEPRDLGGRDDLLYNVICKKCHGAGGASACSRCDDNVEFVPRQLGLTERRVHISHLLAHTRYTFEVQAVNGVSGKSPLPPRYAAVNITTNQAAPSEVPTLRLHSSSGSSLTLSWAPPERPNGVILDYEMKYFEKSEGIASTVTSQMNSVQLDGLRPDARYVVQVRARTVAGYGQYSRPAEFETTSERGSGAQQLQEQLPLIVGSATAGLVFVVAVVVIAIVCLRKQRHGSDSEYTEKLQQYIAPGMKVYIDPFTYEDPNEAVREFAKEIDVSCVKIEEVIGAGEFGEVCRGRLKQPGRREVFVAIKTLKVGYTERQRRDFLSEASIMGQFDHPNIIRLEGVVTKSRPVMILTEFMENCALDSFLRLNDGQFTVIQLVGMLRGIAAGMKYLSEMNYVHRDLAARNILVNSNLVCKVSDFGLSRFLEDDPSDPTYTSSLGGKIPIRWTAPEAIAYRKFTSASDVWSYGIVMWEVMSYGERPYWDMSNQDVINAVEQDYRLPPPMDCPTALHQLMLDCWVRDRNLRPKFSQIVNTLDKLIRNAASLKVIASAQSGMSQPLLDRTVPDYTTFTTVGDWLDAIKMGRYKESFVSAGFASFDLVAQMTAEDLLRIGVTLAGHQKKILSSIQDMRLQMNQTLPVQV
Sequence of MARK1 (Q9P0L2 whole entry): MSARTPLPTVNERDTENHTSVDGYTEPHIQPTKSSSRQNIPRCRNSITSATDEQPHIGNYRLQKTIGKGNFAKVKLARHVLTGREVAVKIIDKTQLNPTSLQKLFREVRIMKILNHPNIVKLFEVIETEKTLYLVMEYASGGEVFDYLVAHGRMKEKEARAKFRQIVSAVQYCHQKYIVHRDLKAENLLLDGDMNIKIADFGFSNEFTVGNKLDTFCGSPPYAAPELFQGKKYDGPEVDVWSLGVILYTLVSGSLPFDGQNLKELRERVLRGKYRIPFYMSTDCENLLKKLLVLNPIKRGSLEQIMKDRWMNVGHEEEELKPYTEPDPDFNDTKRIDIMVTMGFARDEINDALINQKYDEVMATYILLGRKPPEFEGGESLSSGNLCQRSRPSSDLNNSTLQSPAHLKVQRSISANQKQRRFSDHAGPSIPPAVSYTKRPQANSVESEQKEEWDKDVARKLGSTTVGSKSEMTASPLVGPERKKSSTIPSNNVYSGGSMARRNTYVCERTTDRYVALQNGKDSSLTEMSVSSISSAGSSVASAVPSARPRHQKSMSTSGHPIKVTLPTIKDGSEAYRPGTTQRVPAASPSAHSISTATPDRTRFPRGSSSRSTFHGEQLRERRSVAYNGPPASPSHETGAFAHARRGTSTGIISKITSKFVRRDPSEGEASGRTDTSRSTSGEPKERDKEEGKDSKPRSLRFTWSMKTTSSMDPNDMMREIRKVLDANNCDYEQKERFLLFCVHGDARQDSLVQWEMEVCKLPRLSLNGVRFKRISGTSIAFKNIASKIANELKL
Sequence of ULK1 (O75385 whole entry): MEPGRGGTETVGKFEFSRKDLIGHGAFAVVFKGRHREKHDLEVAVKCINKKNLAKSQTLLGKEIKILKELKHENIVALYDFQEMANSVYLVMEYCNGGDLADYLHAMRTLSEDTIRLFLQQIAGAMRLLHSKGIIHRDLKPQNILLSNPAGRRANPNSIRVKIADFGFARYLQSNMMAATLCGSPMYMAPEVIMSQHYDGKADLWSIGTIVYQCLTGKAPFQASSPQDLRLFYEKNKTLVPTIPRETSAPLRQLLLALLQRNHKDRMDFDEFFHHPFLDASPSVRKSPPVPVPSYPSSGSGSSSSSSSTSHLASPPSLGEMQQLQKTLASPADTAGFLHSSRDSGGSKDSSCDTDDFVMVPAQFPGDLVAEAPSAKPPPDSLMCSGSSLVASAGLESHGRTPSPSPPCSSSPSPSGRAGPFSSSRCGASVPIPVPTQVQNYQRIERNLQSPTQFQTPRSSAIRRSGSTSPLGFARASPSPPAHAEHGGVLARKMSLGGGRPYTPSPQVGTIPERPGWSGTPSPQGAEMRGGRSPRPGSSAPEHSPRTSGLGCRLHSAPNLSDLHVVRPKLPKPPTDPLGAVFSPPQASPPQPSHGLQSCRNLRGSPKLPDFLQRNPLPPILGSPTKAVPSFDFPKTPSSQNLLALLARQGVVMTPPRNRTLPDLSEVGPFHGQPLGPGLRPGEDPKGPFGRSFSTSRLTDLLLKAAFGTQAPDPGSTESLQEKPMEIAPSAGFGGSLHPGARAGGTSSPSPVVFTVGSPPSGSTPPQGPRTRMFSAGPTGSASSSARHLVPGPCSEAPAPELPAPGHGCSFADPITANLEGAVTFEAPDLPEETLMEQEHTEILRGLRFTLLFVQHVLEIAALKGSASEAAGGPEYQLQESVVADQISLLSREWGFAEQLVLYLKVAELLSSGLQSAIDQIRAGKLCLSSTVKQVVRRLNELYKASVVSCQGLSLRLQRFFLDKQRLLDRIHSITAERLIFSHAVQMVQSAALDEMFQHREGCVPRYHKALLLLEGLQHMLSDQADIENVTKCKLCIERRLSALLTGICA
Sequence of PRAK (Q8IW41 whole entry): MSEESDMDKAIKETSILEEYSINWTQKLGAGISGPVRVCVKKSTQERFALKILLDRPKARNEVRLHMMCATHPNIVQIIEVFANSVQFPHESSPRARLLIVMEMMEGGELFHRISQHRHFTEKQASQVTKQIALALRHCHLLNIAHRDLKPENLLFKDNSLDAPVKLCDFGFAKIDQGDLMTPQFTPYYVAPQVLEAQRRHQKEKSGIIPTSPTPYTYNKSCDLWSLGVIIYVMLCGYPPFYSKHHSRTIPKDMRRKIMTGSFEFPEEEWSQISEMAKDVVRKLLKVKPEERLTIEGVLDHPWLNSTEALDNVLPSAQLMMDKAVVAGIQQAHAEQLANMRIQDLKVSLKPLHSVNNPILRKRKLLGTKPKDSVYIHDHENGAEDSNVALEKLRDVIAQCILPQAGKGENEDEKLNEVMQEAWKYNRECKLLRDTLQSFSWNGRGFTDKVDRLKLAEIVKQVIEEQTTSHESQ
Sequence of TIE2 (Q02763 23-1124): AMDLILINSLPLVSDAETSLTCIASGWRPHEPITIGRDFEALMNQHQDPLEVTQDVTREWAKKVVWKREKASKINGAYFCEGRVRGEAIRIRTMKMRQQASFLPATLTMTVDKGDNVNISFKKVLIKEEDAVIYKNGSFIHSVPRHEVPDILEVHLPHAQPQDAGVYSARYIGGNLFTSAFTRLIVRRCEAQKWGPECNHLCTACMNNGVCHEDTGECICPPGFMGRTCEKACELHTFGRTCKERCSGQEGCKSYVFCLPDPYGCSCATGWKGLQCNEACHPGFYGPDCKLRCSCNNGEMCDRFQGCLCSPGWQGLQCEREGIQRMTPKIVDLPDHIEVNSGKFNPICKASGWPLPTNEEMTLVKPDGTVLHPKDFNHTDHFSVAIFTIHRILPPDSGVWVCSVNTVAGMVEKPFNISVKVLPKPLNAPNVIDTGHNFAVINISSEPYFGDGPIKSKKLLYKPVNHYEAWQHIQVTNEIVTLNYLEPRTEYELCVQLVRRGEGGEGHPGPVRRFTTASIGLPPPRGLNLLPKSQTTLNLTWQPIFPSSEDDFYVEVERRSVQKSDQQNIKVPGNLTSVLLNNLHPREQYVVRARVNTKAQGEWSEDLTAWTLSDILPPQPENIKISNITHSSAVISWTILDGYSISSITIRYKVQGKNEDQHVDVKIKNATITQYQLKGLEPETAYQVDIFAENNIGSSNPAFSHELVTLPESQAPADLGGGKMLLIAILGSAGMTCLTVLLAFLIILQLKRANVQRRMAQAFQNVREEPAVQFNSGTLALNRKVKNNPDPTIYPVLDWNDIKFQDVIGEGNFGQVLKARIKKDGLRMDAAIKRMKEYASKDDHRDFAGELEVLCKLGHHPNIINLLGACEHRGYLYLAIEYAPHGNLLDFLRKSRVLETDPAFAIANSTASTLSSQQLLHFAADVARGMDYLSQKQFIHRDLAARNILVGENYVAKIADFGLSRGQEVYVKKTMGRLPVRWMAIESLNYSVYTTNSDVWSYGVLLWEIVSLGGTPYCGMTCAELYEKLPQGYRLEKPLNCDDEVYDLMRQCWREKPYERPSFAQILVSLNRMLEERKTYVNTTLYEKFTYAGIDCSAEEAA
Sequence of MKK6 (P52564 whole entry): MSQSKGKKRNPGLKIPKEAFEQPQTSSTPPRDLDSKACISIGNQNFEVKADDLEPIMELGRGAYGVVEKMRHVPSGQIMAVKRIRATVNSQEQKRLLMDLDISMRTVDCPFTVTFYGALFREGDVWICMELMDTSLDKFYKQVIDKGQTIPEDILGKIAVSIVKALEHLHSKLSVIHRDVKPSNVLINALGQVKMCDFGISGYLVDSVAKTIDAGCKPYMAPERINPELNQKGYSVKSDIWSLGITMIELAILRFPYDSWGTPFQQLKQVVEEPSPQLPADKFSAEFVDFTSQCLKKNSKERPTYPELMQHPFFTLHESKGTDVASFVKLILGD

Structure (SMILES)	PKBβ activity, percentage of DMSO control (PKBβ) [percentage]	EPH-B3 activity, percentage of DMSO control (EPH-B3) [percentage]	MKK6 activity, percentage of DMSO control (MKK6) [percentage]	TIE2 activity, percentage of DMSO control (TIE2) [percentage]	CHK2 activity, percentage of DMSO control (CHK2) [percentage]	LKB1 activity, percentage of DMSO control (LKB1) [percentage]	PHK activity, percentage of DMSO control (PHK) [percentage]	CSK activity, percentage of DMSO control (CSK) [percentage]	MPSK1 activity, percentage of DMSO control (MPSK1) [percentage]	MAP4K3 activity, percentage of DMSO control (MAP4K3) [percentage]	ULK1 activity, percentage of DMSO control (ULK1) [percentage]	MNK1 activity, percentage of DMSO control (MNK1) [percentage]	MLK1 activity, percentage of DMSO control (MLK1) [percentage]	TLK1 activity, percentage of DMSO control (TLK1) [percentage]	MST4 activity, percentage of DMSO control (MST4) [percentage]	NEK2α activity, percentage of DMSO control (NEK2α) [percentage]	PRAK activity, percentage of DMSO control (PRAK) [percentage]	NUAK1 activity, percentage of DMSO control (NUAK1) [percentage]	MEKK1 activity, percentage of DMSO control (MEKK1) [percentage]	further results
Cc1nc(Nc2cnn(C3CCNCC3)c2)nc2c1N(C)C(=O)c1cc3ccccc3cc1N2C [HTH-01-015]	104	120	87	84	105	98	104	103	103	127	132	102	102	106	119	103	105	11	110	MARK1 activity, percentage of DMSO control (MARK1; 0.1 or 1 μM inhibitor, mean of triplicate): 106 percentage
CCC(=O)Nc1cccc(Oc2nc(Nc3ccc(N4CCN(C)CC4)cc3OC)ncc2Cl)c1 [WZ4003]	114	113	101	94	40	87	54	105	107	111	52	104	69	91	101	110	94	6	91	–
CN1C(=O)c2ccccc2N(C)c2nc(Nc3cnn(C4CCNCC4)c3)ncc21 [XMD-17-51]	–	–	–	–	–	–	–	–	–	–	–	–	–	–	–	–	–	–	–	Inhibition of MARK1 in profiling (in words) (MARK1; 1 μM): inhibited
